In ChEMBL document CHEMBL1201862, “PubChem BioAssay data set” (2004):
The source made the active and inactive calls.

Tests used:
[1] = Luminescent dose response cell-based high throughput screening assay for inhibitors of the Janus kinase 2 mutant JAK2V617F. [Related pubchem assays: 1446 (Primary screen.), 1521 (Confirmation assay.), 1486 (Counter screen.)]; assay type: functional
[2] = cytotoxicity in HPDE-C7 cells, cell-based, fluorescence, HTS (AID 430); assay type: functional; settings: Homo sapiens
[3] = cytotoxicity toward NIH3T3 fibroblasts, dose response, counter-screen, cell-based, ATP luminescence, mouse fibroblasts (AID 2010); assay type: functional;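 also: cells exposed to compound for about 90 hours before reading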
[4] = molecular target: T1, Mannose-6-phosphate isomerase (Homo sapiens, UniProt P34949); assay: human PMI inhibitors, high substrate, primary screen, biochemical, fluorescence intensity, high mannose 6-phosphate (AID 1220)
T1 sequence (P34949 whole entry): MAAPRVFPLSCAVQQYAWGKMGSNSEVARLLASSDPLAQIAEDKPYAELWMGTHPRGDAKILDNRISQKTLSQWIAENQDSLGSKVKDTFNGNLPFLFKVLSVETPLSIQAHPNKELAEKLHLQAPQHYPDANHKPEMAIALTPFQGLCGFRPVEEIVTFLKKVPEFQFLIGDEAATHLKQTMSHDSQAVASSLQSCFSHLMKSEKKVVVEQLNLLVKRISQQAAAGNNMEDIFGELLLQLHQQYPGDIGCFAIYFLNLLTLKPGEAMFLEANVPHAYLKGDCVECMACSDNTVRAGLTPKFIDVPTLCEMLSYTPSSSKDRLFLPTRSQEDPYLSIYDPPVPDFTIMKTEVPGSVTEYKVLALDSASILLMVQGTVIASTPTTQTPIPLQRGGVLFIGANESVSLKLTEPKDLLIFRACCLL

[5] = molecular target: T2, Voltage-gated N-type calcium channel alpha-1B subunit/Amyloid beta A4 precursor protein-binding family A member 1 (Homo sapiens, UniProt Q00975+Q02410); assay type: protein assay
T2 sequence (Q00975 whole entry): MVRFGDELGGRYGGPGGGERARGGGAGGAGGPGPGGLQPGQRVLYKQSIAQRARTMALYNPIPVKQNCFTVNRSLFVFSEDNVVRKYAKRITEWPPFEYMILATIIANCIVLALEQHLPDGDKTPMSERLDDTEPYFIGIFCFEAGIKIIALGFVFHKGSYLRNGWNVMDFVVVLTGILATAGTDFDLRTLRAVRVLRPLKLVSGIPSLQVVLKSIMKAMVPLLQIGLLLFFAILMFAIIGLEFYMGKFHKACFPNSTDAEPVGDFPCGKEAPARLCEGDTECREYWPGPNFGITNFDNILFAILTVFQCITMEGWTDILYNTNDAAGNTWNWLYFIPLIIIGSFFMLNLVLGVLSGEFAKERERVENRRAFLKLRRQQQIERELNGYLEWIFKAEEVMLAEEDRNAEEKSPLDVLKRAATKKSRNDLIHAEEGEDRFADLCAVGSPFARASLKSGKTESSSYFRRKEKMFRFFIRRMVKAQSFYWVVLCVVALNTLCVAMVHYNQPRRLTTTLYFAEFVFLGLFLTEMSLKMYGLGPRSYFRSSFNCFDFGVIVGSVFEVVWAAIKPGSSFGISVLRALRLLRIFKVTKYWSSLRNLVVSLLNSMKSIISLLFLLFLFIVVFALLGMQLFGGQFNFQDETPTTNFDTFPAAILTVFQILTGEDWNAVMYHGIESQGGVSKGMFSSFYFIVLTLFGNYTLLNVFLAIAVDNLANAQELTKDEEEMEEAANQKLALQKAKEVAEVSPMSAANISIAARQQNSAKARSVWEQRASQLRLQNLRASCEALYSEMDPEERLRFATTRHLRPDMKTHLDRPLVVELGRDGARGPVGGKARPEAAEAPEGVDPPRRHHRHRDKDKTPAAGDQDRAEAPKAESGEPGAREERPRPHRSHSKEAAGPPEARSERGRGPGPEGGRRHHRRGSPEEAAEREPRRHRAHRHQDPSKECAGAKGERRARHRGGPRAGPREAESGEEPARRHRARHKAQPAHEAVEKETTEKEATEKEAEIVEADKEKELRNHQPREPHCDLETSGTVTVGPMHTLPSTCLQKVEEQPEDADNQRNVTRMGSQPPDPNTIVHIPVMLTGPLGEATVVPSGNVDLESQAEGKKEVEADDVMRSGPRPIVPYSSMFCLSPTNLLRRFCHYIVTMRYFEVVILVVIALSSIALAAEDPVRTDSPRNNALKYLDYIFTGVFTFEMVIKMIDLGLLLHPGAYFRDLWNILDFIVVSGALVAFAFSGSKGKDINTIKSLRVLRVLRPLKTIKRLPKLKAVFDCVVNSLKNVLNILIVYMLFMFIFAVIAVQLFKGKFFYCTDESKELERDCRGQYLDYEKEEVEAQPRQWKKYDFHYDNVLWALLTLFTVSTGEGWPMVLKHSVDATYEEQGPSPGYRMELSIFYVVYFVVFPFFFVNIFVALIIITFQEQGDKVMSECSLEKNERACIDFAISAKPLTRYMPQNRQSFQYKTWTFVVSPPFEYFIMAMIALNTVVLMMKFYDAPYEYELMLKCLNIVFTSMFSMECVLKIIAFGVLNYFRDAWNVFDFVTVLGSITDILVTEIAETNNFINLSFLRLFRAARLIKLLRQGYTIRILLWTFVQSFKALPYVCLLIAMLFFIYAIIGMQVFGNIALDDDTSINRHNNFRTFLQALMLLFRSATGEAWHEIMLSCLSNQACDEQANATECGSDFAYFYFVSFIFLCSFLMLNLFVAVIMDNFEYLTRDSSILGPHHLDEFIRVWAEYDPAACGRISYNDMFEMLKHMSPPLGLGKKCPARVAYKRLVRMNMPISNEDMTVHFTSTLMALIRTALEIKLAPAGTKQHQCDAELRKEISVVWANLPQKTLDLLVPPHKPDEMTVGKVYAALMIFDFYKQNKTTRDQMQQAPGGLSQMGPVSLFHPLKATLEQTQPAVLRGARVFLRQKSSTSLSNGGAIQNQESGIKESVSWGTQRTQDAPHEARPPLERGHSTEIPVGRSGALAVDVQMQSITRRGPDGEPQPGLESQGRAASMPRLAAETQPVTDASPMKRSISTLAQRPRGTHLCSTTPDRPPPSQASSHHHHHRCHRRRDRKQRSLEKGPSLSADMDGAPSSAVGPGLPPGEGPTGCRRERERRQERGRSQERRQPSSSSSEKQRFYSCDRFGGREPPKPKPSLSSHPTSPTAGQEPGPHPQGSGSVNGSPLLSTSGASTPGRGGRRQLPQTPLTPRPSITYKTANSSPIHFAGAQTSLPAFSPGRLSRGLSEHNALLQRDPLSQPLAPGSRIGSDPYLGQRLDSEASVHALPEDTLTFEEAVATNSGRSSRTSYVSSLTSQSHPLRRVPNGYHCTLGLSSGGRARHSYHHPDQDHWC
T2 sequence (Q02410 whole entry): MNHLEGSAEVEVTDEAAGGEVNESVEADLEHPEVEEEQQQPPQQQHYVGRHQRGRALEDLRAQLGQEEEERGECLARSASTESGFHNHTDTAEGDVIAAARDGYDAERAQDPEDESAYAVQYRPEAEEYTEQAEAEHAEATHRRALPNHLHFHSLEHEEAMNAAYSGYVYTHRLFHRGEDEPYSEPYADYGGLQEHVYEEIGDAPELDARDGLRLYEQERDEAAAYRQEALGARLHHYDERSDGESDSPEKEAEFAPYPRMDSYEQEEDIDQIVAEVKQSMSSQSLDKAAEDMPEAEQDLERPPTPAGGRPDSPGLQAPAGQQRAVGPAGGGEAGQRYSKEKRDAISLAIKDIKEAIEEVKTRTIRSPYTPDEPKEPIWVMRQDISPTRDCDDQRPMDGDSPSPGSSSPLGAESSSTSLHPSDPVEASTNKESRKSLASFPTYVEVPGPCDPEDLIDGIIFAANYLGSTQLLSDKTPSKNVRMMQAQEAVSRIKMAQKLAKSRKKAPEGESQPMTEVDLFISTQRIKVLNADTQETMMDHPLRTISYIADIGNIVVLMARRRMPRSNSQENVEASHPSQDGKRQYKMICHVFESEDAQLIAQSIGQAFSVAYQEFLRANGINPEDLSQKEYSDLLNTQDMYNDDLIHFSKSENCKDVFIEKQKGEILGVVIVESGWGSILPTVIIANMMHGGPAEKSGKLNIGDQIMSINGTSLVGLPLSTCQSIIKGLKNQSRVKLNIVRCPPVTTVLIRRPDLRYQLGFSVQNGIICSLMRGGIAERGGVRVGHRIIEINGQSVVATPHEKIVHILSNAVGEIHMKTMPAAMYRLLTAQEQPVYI

[6] = molecular target: T2, Voltage-gated N-type calcium channel alpha-1B subunit/Amyloid beta A4 precursor protein-binding family A member 1; assay type: protein assay; remark: listed apart in the source
[7] = molecular target: T3, Tyrosine-protein phosphatase non-receptor type 22 (Homo sapiens, UniProt Q9Y2R2); assay: SAR LYP1 Fluorescent Assay using pCAP substrate for In Vitro dose response studies - Set 2. [Related pubchem assays (depositor defined):AID1779, AID1784, AID2135, AID449727]; assay type: functional
T3 sequence (Q9Y2R2 whole entry): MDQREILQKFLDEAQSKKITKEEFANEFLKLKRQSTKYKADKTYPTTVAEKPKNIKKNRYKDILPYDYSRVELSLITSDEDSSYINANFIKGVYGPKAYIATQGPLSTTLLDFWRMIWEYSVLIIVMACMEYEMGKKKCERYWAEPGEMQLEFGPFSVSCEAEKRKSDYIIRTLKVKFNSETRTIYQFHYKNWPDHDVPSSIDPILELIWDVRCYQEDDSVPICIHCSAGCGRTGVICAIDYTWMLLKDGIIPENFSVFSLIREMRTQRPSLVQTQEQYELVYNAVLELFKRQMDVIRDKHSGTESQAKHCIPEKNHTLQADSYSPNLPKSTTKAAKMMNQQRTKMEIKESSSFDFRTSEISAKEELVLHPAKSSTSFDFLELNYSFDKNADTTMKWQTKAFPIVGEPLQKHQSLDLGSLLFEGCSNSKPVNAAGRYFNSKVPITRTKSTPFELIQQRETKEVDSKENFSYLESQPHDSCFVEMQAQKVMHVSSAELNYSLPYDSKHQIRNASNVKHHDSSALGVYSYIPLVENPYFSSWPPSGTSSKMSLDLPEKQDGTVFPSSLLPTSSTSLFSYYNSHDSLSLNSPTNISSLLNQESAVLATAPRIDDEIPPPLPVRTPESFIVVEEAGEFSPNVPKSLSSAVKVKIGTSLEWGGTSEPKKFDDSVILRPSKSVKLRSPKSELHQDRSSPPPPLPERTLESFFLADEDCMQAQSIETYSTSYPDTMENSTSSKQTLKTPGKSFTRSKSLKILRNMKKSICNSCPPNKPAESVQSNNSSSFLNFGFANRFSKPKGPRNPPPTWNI

[8] = molecular target: T3, Tyrosine-protein phosphatase non-receptor type 22; assay: PubChem AID 2135
[9] = molecular target: T3, Tyrosine-protein phosphatase non-receptor type 22; assay: PubChem AID 2140
[10] = cytotoxicity in HEK-293T cells, dose response, cytotoxicity control for BCR NF-kB inhibitor project, luminescence, B-cell screen hits (AID 489021); assay type: functional, cell-based;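 also: HEK-293T cells carrying an NF-kB luciferase reporter; cells exposed to compound for about 14 hours before viability readout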
[11] = molecular target: T4, Apoptotic protease-activating factor 1 (Homo sapiens, UniProt O14727); assay: activation of Apaf-1 mediated apoptosis – fluorescent, uHTS hits, dose response (AID 588554); assay type: functional
T4 sequence (O14727 whole entry): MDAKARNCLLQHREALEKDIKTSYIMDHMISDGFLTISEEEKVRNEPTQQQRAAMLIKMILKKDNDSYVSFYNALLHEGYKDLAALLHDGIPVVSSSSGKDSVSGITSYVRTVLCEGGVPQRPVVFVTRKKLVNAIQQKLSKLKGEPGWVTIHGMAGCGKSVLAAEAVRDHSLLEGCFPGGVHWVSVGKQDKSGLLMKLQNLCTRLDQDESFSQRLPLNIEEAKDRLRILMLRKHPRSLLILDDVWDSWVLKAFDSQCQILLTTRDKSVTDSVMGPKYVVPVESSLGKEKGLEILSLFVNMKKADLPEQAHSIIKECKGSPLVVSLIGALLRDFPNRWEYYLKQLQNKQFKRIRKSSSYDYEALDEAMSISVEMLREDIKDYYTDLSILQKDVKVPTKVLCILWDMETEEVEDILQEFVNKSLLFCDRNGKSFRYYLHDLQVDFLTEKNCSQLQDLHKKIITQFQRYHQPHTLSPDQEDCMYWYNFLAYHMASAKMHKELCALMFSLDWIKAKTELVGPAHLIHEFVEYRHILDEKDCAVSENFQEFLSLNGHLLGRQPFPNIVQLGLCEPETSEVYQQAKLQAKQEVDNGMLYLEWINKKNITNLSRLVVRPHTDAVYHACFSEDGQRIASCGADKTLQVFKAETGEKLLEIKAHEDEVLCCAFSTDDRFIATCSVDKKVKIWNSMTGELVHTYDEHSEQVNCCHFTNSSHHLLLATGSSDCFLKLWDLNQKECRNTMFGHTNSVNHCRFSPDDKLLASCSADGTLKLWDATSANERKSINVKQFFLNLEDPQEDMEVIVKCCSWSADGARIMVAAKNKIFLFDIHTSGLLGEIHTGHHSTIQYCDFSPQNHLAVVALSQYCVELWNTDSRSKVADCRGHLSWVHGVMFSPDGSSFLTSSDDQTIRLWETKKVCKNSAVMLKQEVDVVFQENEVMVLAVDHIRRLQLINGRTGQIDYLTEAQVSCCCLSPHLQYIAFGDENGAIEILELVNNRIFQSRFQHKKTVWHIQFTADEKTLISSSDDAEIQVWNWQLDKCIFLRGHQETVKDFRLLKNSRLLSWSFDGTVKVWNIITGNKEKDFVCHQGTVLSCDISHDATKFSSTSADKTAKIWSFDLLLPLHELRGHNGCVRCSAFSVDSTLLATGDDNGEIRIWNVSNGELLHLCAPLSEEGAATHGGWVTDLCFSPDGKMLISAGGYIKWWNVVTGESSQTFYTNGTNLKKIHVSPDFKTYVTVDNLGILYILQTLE

SMILES	IC50 [1]	EC50 [2]	EC50 [3]	IC50 [4]	IC50 [5]	IC50 [6]	IC50 [7]	IC50 [8]	IC50 [9]	IC50 [10]	EC50 [11]
COc1ccc(Nc2ccc3c(c2)=NC2(CCCCC2)[N+]=3[O-])cc1	0.824 µM (active)	6.89 µM (active)	9.19 µM (active)	> 50 µM (not active)	–	–	–	–	–	–	–
COc1ccc(/C=C2\SC(=S)N(CCC(=O)Nc3ccc(C(=O)O)cc3)C2=O)cc1OC	–	–	–	–	7.89 µM (active)	> 50 µM (inactive)	1.38 µM (active)	2.96 µM (active)	7.46 µM (active)	> 80 µM (inactive)	9.36 µM (active)
